This is an account of results in publication PMC9971447 (Asian Pacific Journal of Cancer Prevention : APJCP, 2022).

Structures are written as SMILES. Like-named read-outs stand apart in the source and are kept apart here.

Data set [1] relates to T47D. In words: SRB antiproliferation assay, T47D breast cancer cells. It counts as cell-based.
The subject of data set [2] is MCF7. The data set is described as follows: SRB antiproliferation assay, MCF7 breast cancer cells. It counts as cell-based. In general terms: In SRB staining, fixed cells bind dye roughly in proportion to their protein.
Data set [3] deals with PANC1. The data set is described as follows: SRB antiproliferation assay, PANC1 pancreatic cells. Format: cell-based.
In data set [4] the test system is RAW 264.7 mouse macrophage cell line (nitric oxide synthase readout). The data set is described as follows: LPS-triggered NO. Format: cell-based. As to conditions: for antiinflammation potency compared with indomethacin: LPS-triggered inflammation in RAW macrophages, in words.
The test system of data set [5] is HCT116. The data set is described as follows: SRB antiproliferation assay, HCT116 colorectal cancer cells. It counts as cell-based.
Data set [6] has as its system SW480. In words: SRB antiproliferation assay, SW480 colorectal cancer cells. It counts as cell-based.
Data set [7] has as its system SW620. The data set is described as follows: SRB antiproliferation assay, SW620 colorectal cancer cells. To be noted: read-out: Cytotoxicity (as of %Control) IC50 value, SW620, 72 h incubations, mean ± SD, n = 3. Format: cell-based.
The subject of data set [8] is colorectal cancer cell lines. As to conditions: ref Mamdooh et al., 2019; cited from earlier work.
Data set [9] deals with SW620. To be noted: read-out: IC50 value in SW620 cells; ref Mamdooh et al., 2019; cited from earlier work.
Data set [10] relates to T47D. To be noted: read-out: antiproliferative IC50, T47D cell line; ref AlKhalil et al., 2020; cited from earlier work.
Data set [11] relates to A375.2S cell line. As to conditions: read-out: antiproliferative IC50, A375.2S cell line; ref AlKhalil et al., 2020; cited from earlier work.
Data set [12] relates to CACO2. The data set is described as follows: SRB antiproliferation assay, CACO2 colorectal cancer cells. As to conditions: read-out: Cytotoxicity (as of %Control) IC50 value, CACO2, 72 h incubations, mean ± SD, n = 3.
Data set [13] deals with HT29. In words: SRB antiproliferation assay, HT29 colorectal cancer cells. As to conditions: read-out: Cytotoxicity (as of %Control) IC50 value, HT29, 72 h incubations, mean ± SD, n = 3. Format: cell-based.
Setting [14] is: read-out: Cytotoxicity (as of %Control) IC50 value, T47D, SRB, 72 h incubations, mean ± SD, n = 3.
[15] abbreviates: read-out: Cytotoxicity (as of %Control) IC50 value, MCF7, SRB, 72 h incubations, mean ± SD, n = 3.
The mark [16] stands for this setting: Homo sapiens, PANC-1, 72 h, read-out: Cytotoxicity (as of %Control) IC50 value, PANC 1, SRB, 72 h incubations, mean ± SD, n = 3.
[17] abbreviates: Mus musculus, RAW264.7, 24 h, read-out: NOS- IC50 value, LPS 20 μg/mL, RAW264.7, 24h incubations, mean ± SD, n = 3.
Where [18] appears, read: Homo sapiens, SW480, 72 h, read-out: Cytotoxicity (as of %Control) IC50 value, SW480, SRB, 72 h incubations, mean ± SD, n = 3.
[19] abbreviates: Homo sapiens, MCF7, 72 h, read-out: Cytotoxicity (as of %Control) IC50 value, MCF7, SRB, 72 h incubations, mean ± SD, n = 3.
Setting [20] is: read-out: Cytotoxicity (as of %Control) IC50 value, SW480, SRB, 72 h incubations, mean ± SD, n = 3.
Where [21] appears, read: Homo sapiens, T47D, 72 h, read-out: Cytotoxicity (as of %Control) IC50 value, T47D, SRB, 72 h incubations, mean ± SD, n = 3.
Where [22] appears, read: read-out: NOS- IC50 value, LPS 20 μg/mL, RAW264.7, 24h incubations, mean ± SD, n = 3.

As for `CC(C)n1c(/C=C/C(O)CC(O)CC(=O)O)c(-c2ccc(F)cc2)c2ccccc21` (stereo not drawn) [Fluvastatin], the IC50 in [1] (setting [14]) is more than 50 µM; in [2] (setting [15]), more than 50 µM; in data set [3] (setting [16]) it was more than 50 µM; in data set [4] (setting [17]) it was 110 ± 20.6 µM. The “antiinflammation potency compared with indomethacin” value in data set [4] is reported as “equipotency to indomethacin”.
Turning to `COCc1c(C(C)C)nc(C(C)C)c(/C=C/[C@@H](O)C[C@@H](O)CC(=O)O)c1-c1ccc(F)cc1` [Cerivastatin], the IC50 in data set [5] (Homo sapiens, HCT-116, 72 h, read-out: Cytotoxicity (as of %Control) IC50 value, HCT116, SRB, 72 h incubations, mean ± SD, n = 3) is 2.9 µM; in [6] (setting [18]) it was 6 µM; in data set [1] (setting [14]) it was less than 50 µM; in [2] (setting [19]) it was less than 50 µM; in data set [3] (setting [16]) it was less than 50 µM. In data set [4] (LPS 20 μg/mL, RAW264.7, 24h incubations, mean ± SD, n = 3), the “NOS- IC50 value” was “lack and noninhibitory”.
As for `CC(C)c1nc(N(C)S(C)(=O)=O)nc(-c2ccc(F)cc2)c1/C=C/[C@@H](O)C[C@@H](O)CC(=O)O` [Rosuvastatin], the IC50 was 15 µM in [7]; 23 µM in data set [6] (setting [20]); more than 50 µM in data set [1] (setting [21]); 1.5 µM in [2] (setting [15]); more than 50 µM in data set [3] (setting [16]); 74.2 ± 13.1 µM in [4] (setting [17]). For the same compound, the “antiinflammation potency compared with indomethacin” value in data set [4] was “equipotency to indomethacin”.
On to `COc1cccc2c1C(=O)c1c(O)c3c(c(O)c1C2=O)C[C@@](O)(C(=O)CO)C[C@@H]3O[C@H]1C[C@H](N)[C@H](O)[C@H](C)O1` [Doxorubicin], for which the “activity against CRC cell lines (in words)” value (from here on “activity”) in [8] was “nanomolar”.
Regarding `CC(C)c1c(C(=O)Nc2ccccc2)c(-c2ccccc2)c(-c2ccc(F)cc2)n1CC[C@@H](O)C[C@@H](O)CC(=O)O` [Atorvastatin], the IC50 in data set [5] (read-out: Cytotoxicity (as of %Control) IC50 value, HCT116, SRB, 72 h incubations, mean ± SD, n = 3) is less than 50 µM; in data set [7], less than 50 µM; in data set [4] (setting [17]), 42 µM; in [4] (setting [22]), 42.8 ± 7.17 µM; in data set [9], 0.0018 µM; in data set [10], 34.6 µM. In addition, the IC50 in data set [11] is 0.0156 µM. The “antiinflammation potency compared with indomethacin” value in [4] is given as “substantially more potent”.
For the compound `O=C(O)C[C@H](O)C[C@H](O)/C=C/c1c(C2CC2)nc2ccccc2c1-c1ccc(F)cc1` [Pitavastatin], the IC50 in data set [1] (setting [14]) is more than 50 µM; in data set [2] (setting [19]), more than 50 µM; in data set [3] (read-out: Cytotoxicity (as of %Control) IC50 value, PANC 1, SRB, 72 h incubations, mean ± SD, n = 3), more than 50 µM; in [4] (setting [17]), 98.7 ± 1.87 µM. In addition, the “antiinflammation potency compared with indomethacin” value in data set [4] was “equipotency to indomethacin”.
Turning to `CC[C@H](C)C(=O)O[C@H]1CCC=C2C=C[C@H](C)[C@H](CC[C@@H]3C[C@@H](O)CC(=O)O3)[C@H]21` [Mevastatin], the IC50 in data set [6] (setting [18]) is less than 50 µM; in data set [6] (setting [20]), 36 µM; in data set [1] (setting [21]), more than 50 µM; in data set [2] (setting [15]), more than 50 µM; in data set [3] (setting [16]), more than 50 µM; in data set [4] (setting [17]), 142 ± 17.2 µM. Also, the “antiinflammation potency compared with indomethacin” value in data set [4] was “inferior antiinflammation potency to indomethacin”.
For the compound `CO/N=C1\CN(c2nc3c(cc2F)c(=O)c(C(=O)O)cn3C2CC2)CC1CN` (stereo not drawn) [gemifloxacin], the “activity” value in data set [8] is given as “active”.
Take `COc1ccc2c(c1)c(CC(=O)O)c(C)n2C(=O)c1ccc(Cl)cc1` [Indomethacin]: the IC50 was 87 µM in [4] (setting [17]) and 86.5 ± 10.5 µM in [4] (setting [22]).
`CCC(C)(C)C(=O)O[C@H]1C[C@@H](C)C=C2C=C[C@H](C)[C@H](CC[C@@H]3C[C@@H](O)CC(=O)O3)[C@H]21` [Simvastatin]: the “antiinflammation potency compared with indomethacin” value in [4] is recorded as “substantially more potent”. Besides, the IC50 came out at 42 µM in data set [4] (setting [17]) and 42.5 ± 6.41 µM in data set [4] (setting [22]).
For `O=C(O)c1cn(C2CC2)c2cc(N3CCNCC3)c(F)cc2c1=O` [ciprofloxacin], the “activity” value in [8] is “did not show any activity”.
For the compound `CC[C@H](C)C(=O)O[C@H]1C[C@@H](C)C=C2C=C[C@H](C)[C@H](CC[C@@H]3C[C@@H](O)CC(=O)O3)[C@H]21` [Lovastatin], the “antiinflammation potency compared with indomethacin” value in data set [4] is “substantially more potent”. Further, the IC50 in [4] (setting [17]) was 42 µM; in [4] (setting [22]), 41.6 ± 4.34 µM; in [12], more than 100 µM.
For `CC[C@H](C)C(=O)O[C@H]1C[C@H](O)C=C2C=C[C@H](C)[C@H](CC[C@@H](O)C[C@@H](O)CC(=O)O)[C@H]21` [Pravastatin], the IC50 was less than 50 µM in data set [13], more than 50 µM in [3] (setting [16]) and 204 ± 14.1 µM in data set [4] (setting [17]). For the same compound, the “antiinflammation potency compared with indomethacin” value in [4] is recorded as “inferior antiinflammation potency to indomethacin”.
